Among the test systems are HT29 colon; OVCAR-5 ovarian; BT-549 breast; KM12 colon; SK-MEL-2 melanoma; ACHN renal; SR leukemia; MDA-MB-231 breast; MALME-3M melanoma; RXF 393 renal.
Test in all cases: NCI-60 cell line screen, 48 h

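Step 1: Grow cells in 96-well plates. Step 2: Expose to compound for 48 hours at 5 concentrations. Step 3: Interpolate endpoints linearly; if unreached, use highest concentration. Abbreviation: GI50, concentration required for 50% inhibition of growth. TGI: total growth inhibition.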 Bounds are passed on as bounds.

As to `O=c1cccc(C#CC#CCCCO)o1`, the GI50 in the assay on HT29 colon was 4.66 µM; in the assay with OVCAR-5 ovarian, 5.57 µM; in the assay on BT-549 breast it was 7.95 µM; in the assay with KM12 colon, 0.834 µM; with SK-MEL-2 melanoma it was 12.6 µM; in the assay on ACHN renal, 12.4 µM. Moreover, the GI50 was 0.158 µM in the assay with SR leukemia, 1.99 µM in the assay on MDA-MB-231 breast, 0.788 µM in the assay on MALME-3M melanoma and 3.27 µM in the assay on RXF 393 renal. Moreover, the TGI in the assay with HT29 colon is more than 100 µM; with OVCAR-5 ovarian it was 11.6 µM; in the assay with BT-549 breast it was 23.6 µM; in the assay with KM12 colon, 9.26 µM; in the assay with SK-MEL-2 melanoma it was more than 100 µM; in the assay on ACHN renal, 24.9 µM. Also, the TGI in the assay with SR leukemia was 2.37 µM; with MDA-MB-231 breast, 4.82 µM; with MALME-3M melanoma, 3.78 µM; in the assay on RXF 393 renal, 11.5 µM.

`O=S(=O)(NC1=NCCN1C(=S)SN1CCn2c1nsc2=S)c1cccc(OC(F)(F)F)c1`: the GI50 with HT29 colon was 6.91 µM; in the assay on OVCAR-5 ovarian it was 16.4 µM; in the assay on BT-549 breast, 25.7 µM; in the assay on KM12 colon, 10.3 µM; with SK-MEL-2 melanoma, 16 µM; with ACHN renal it was 13.5 µM. Besides, the GI50 in the assay with SR leukemia was 2.77 µM; in the assay with MDA-MB-231 breast it was 14.1 µM; in the assay on MALME-3M melanoma it was 6.75 µM; in the assay on RXF 393 renal, 2.42 µM. Further, the TGI in the assay on HT29 colon is 26.4 µM; in the assay on OVCAR-5 ovarian it was 30 µM; with BT-549 breast, more than 100 µM; with KM12 colon, 24.5 µM; in the assay on SK-MEL-2 melanoma it was 41.5 µM; in the assay with ACHN renal it was 26.3 µM. Further, the TGI in the assay with SR leukemia was more than 100 µM; in the assay on MDA-MB-231 breast it was 35.4 µM; in the assay on MALME-3M melanoma, 23.3 µM; in the assay on RXF 393 renal, 6 µM.

As for `Cn1nnc2c(C(N)=O)ncn2c1=O`, the TGI in the assay on HT29 colon, with OVCAR-5 ovarian, with BT-549 breast, with KM12 colon, in the assay on SK-MEL-2 melanoma and in the assay on ACHN renal was more than 100 µM each time. The TGI in the assay on SR leukemia, with MDA-MB-231 breast, in the assay with MALME-3M melanoma and in the assay with RXF 393 renal was more than 100 µM each time.

As for `Nc1n[nH]c(N)c1N=Nc1ccc(O)cc1`, the GI50 in the assay on HT29 colon is 29.7 µM; in the assay on OVCAR-5 ovarian, 23.5 µM; in the assay on BT-549 breast, 14 µM; in the assay with KM12 colon it was 17.2 µM; in the assay with SK-MEL-2 melanoma it was 14.4 µM; in the assay with ACHN renal, 15.6 µM. Also, the GI50 with SR leukemia was 10.3 µM; in the assay on MDA-MB-231 breast, 16.8 µM; in the assay on MALME-3M melanoma, 24.6 µM; with RXF 393 renal it was 18.4 µM. The TGI was more than 100 µM in the assay with HT29 colon; more than 100 µM in the assay with OVCAR-5 ovarian; 63.5 µM with BT-549 breast; 74.1 µM in the assay with KM12 colon; 57 µM in the assay with SK-MEL-2 melanoma; 61.1 µM with ACHN renal. For the same molecule, the TGI in the assay with SR leukemia was 59.8 µM; in the assay with MDA-MB-231 breast, 82.8 µM; in the assay with MALME-3M melanoma, 60.3 µM; with RXF 393 renal, 43.9 µM.

Turning to `O=C1CCC(N2C(=O)c3cccc(NCCCC4CCN(CCNC(=O)c5cc6c(o5)C(=O)c5ccccc5C6=O)CC4)c3C2=O)C(=O)N1` (stereo not given), the GI50 in the assay on HT29 colon is 0.823 µM; in the assay on OVCAR-5 ovarian it was 0.653 µM; in the assay on BT-549 breast, 0.636 µM; in the assay on KM12 colon, 1.29 µM; in the assay with SK-MEL-2 melanoma, 1.27 µM; in the assay with ACHN renal it was 1.29 µM. The GI50 in the assay with SR leukemia is 0.106 µM; in the assay on MDA-MB-231 breast it was 0.67 µM; in the assay with MALME-3M melanoma, 0.14 µM; in the assay on RXF 393 renal, 1.03 µM. For the same molecule, the TGI came out at 8.81 µM in the assay with HT29 colon; 2 µM in the assay with OVCAR-5 ovarian; 2.15 µM in the assay with BT-549 breast; 3.97 µM in the assay with KM12 colon; 3.6 µM in the assay with SK-MEL-2 melanoma; 2.56 µM with ACHN renal. The TGI was more than 30.1 µM in the assay with SR leukemia, 6.83 µM in the assay with MDA-MB-231 breast, 0.284 µM in the assay on MALME-3M melanoma and 3.08 µM with RXF 393 renal.

For the molecule `O=C1CSC(c2ccccc2O)N1c1nnc(Cn2ccnc2)o1` (stereo not given), the GI50 with HT29 colon was 5 µM; in the assay on OVCAR-5 ovarian, 22.1 µM; in the assay on BT-549 breast, 6.26 µM; in the assay with KM12 colon, 5.16 µM; in the assay with SK-MEL-2 melanoma, 15.2 µM; in the assay on ACHN renal it was 4.96 µM. The GI50 was 2.93 µM in the assay with SR leukemia, 6.25 µM in the assay on MDA-MB-231 breast, 4.43 µM in the assay on MALME-3M melanoma and 22.7 µM in the assay with RXF 393 renal. Also, the TGI is more than 100 µM in the assay on HT29 colon; 50.7 µM with OVCAR-5 ovarian; 29.2 µM in the assay with BT-549 breast; more than 100 µM with KM12 colon; 36.4 µM in the assay with SK-MEL-2 melanoma; more than 100 µM with ACHN renal. For the same molecule, the TGI was more than 100 µM with SR leukemia, 71.4 µM with MDA-MB-231 breast, 26.2 µM in the assay with MALME-3M melanoma and more than 100 µM in the assay on RXF 393 renal.

In the case of `Cc1c2ccncc2c(C)c2c1c1cc(CO)ccc1n2C`, the GI50 is 0.338 µM in the assay on HT29 colon; 0.267 µM in the assay with OVCAR-5 ovarian; 1.73 µM in the assay with BT-549 breast; 0.492 µM in the assay with KM12 colon; 0.819 µM with SK-MEL-2 melanoma; 0.362 µM in the assay on ACHN renal. In addition, the GI50 in the assay on SR leukemia is 0.268 µM; in the assay with MDA-MB-231 breast, 0.456 µM; in the assay with MALME-3M melanoma it was 0.622 µM; in the assay on RXF 393 renal, 0.41 µM. The TGI amounted to 1.78 µM with HT29 colon; 0.984 µM in the assay on OVCAR-5 ovarian; 7.84 µM in the assay on BT-549 breast; 20 µM in the assay on KM12 colon; 2.54 µM in the assay on SK-MEL-2 melanoma; 9.39 µM in the assay on ACHN renal. The TGI with SR leukemia was 2.65 µM; with MDA-MB-231 breast it was 2.96 µM; in the assay with MALME-3M melanoma, 2.51 µM; with RXF 393 renal, 1.7 µM.

Source of the values: PubChem BioAssay (NCI).
